Data: article PMC11566853, “Chemical genetic analysis of enoxolone inhibition of Clostridioides difficile toxin production reveals adenine deaminase and ATP synthase as antivirulence targets” (The Journal of Biological Chemistry, 2024)

Target: T1, adenine deaminase (Ade) (Clostridioides difficile, UniProt A0A9R0BKJ2)
T1 construct: codon-optimized ade in pWL613a (pET28b derivative), N-terminal His-tag, expressed in E. coli BL21(DE3), Ni-NTA and Superdex 200
Assay: surface plasmon resonance, His-captured protein
Format: binding

T1 sequence (A0A9R0BKJ2 entry or part of it): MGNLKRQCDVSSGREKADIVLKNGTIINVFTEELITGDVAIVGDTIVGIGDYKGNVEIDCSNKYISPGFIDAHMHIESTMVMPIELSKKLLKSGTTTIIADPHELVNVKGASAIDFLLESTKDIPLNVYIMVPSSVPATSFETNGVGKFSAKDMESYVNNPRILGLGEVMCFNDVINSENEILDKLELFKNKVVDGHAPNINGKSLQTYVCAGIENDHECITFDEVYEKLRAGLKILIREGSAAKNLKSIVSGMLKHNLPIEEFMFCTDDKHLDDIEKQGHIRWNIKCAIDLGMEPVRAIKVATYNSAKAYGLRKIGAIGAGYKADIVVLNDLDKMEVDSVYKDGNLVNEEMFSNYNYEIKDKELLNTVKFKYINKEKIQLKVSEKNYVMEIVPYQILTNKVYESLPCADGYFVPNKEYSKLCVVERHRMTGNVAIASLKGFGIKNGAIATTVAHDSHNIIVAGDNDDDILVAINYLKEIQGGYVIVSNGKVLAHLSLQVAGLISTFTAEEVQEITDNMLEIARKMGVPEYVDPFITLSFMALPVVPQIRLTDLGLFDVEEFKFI

Structure (SMILES)	Kd [µM]
CC1(C)[C@@H](O)CC[C@]2(C)[C@H]3C(=O)C=C4[C@@H]5C[C@@](C)(C(=O)O)CC[C@]5(C)CC[C@@]4(C)[C@]3(C)CC[C@@H]12 [enoxolone]	34.6 ± 13.4
Clc1ncnc2[nH]cnc12 [6-chloropurine]	264 ± 42.9
